Experimental data taken from paper PMC11329928, “Design, synthesis and structure-activity relationship (SAR) studies of an unusual class of non-cationic fatty amine-tripeptide conjugates as novel synthetic antimicrobial agents” (Frontiers in Pharmacology, 2024).

Assays:
[1] = RP-HPLC retention time used to determine hydrophobicity; assay type: physicochemical; conditions: analytical RP-HPLC, C18 Sunfire column (4.6 mm × 150 mm, 3.5 μm); A = 0.05% TFA in water, B = acetonitrile; 10% to 100% B in 20 min then isocratic 100% B 10 min; 217 and 254 nm; used as measure of hydrophobicity
Procedure: The purity of the lipopeptides was checked by analytical RP-HPLC on an Agilent Infinity instrument equipped with a Diode Array and a C18 Sunfire column (4.6 mm × 150 mm, 3.5 μm). As mobile phase A:B mixtures were used, where A = 0.05% TFA in water and B = acetonitrile. The samples were analyzed at 217 and 254 nm in a gradient from 10% of B to 100% of B in 20 min followed by isocratic 100% of B in 10 min.
Retention times were used to determine the hydrophobicity ([Neubauer et al., 2020]). HRMS (EI+) was carried out in an Agilent 6,520 Accurate-Mass Q-TOF LC/MS spectrometer using water/acetonitrile mixtures. Results can be found in Supplementary Section S3, S4.

[2] = test system: Streptococcus pneumoniae R6; experiment: Growth inhibition / lysis screening of planktonic cultures (OD550/600); assay type: cell-based; set-up: key: (+++) full inhibition; (++) partial inhibition; (+) growth retardation; -: (−) no effect; conditions: S. pneumoniae R6, 50 and 100 μM compound added at early logarithmic phase (T1), OD550/600 followed 10 h, 37°C
Procedure: (§1) Planktonic cultures of selected pathogens (S. pneumoniae R6, S. pyogenes ^T, Staphylococcus aureus ^T, Escherichia coli DH10B, and Pseudomonas aeruginosa PAO1 strains) on early logarithmic-phase (T1) were assayed for their sensitivity to a broad range of DICAM compounds, as indicated in Table 1. Their bacteriostatic or lytic effect was first tested by measuring the variation of the OD550/600 as a function of time (10 h) when (50/100 μM) DICAMs were added, compared to untreated controls. The screening results, summarized in Table 1, evidenced that a potent antimicrobial activity may exist even when the negative charge of the peptide was higher than in the prototype compounds.
(§2) Susceptibility to DICAMs was first tested by growth-inhibition assays at 50 and 100 μM of compound. Briefly, working solutions at 5 mM or 10 mM DICAM in pure DMSO were prepared from DICAM stocks (40 mM in pure DMSO) and diluted with fresh culture medium to 5× the desired final concentration. Aliquots (50 µL) of these solutions were added to 200 µL of bacterium cultures grown to early exponential phase (OD550/600 c. a. 0.15–0.2 in sterile 96-well plates (Cultek, Spain). Incubation continued for 10 h at 37°C and turbidity (OD550/600) values were measured every 20 min to monitor growth and lysis, using a VersaMax microplate reader (Molecular Devices; United Kingdom). Next, the activity dependence on DICAM’s dose was examined by measuring the turbidity of treated and untreated cultures as a function of time. Also, the decay of bacterial viability (CFU/mL) at selected times of treatment was assessed by colony counting on LB-agar or TSA plates after overnight incubation at 37°C. By default, 10 μL of 10-fold serially diluted samples were plated, which set the lower detection limit at 10^2 CFU/mL (10^1 CFU/mL when 100 μL of the undiluted sample was seeded).

[3] = test system: S. pneumoniae D39; assay type: cell-based, Streptococcus pneumoniae
Source text: First, the substitution of the fatty amino chain of 18 carbon atoms of the reference compound DICAM 2 by either an OMe group (methylated tripeptide DICAM 5) or an amine with 12 carbon atoms (DICAM 9) abolished the activity against all three pathogens. However, the activity remained intact when the chain of the fatty amine of prototypes DICAMs 1 and 4 was two carbon atoms shorter (DICAM 10 and DICAM 12, respectively), based on S. pneumoniae and S. pyogenes results. […] Third, Glu and Ala were tolerated as C-terminal residues of the lipotripeptides. […] In addition, deletion of the C-terminal Glu (DICAM 13) eradicated the activity against S. pneumoniae and S. aureus. However, a delay and small inhibition of S. pyogenes ^T growth was still observed. Fourth, Glu (DICAMs 19 and 20) and Orn (DICAMs 21 and 22) were tolerated as N-terminal residues, with the impact of these modifications being pathogen-dependent. […] SAR studies continued by measuring the dose dependence of DICAM’s activity at T1 with all the compounds found to be active against S. pyogenes or S. aureus in the initial screening, and all but one compound in the case of S. pneumoniae. The OD values of bacterial cultures were monitored after DICAM addition, and the decrease in the number of viable bacteria was measured relative to controls (Figures 4–6; Supplementary Figure S1). As antibacterial efficacy may decline with the bacterium dose in the inoculum ([Belley et al., 2009]; [Udekwu et al., 2009]; [Luca et al., 2013]), the assays were performed using the bacterial concentrations necessary for the fluorescence experiments in Section 2.3 (10^7–10^8 CFU/mL). At these high bacterial densities, MICs were determined as the DICAM concentration at which bacteria neither grow nor are killed (the stationary concentration (SC)), following [Udekwu et al., 2009]. By fitting the logarithmic plot of cell viability decrease vs. the DICAM dose to a Hill function (see Section 5.2.3.1) we were able to determine the maximum variation in viability (Δlogmax = ∆log f - ∆log 0, where ∆log f and ∆log 0 are the upper and lower limits of Δlog) in the assay conditions, the SC concentration (Δlog = 0), the dose required for half-variation in Δlogmax (K 1/2), and the cooperativity of the antimicrobial effect (N H).
as §2
As antibacterial efficacy may decline with the bacterium dose in the inoculum ([Belley et al., 2009]; [Udekwu et al., 2009]; [Luca et al., 2013]), activity assays were performed using the bacterial concentrations required for the fluorescence experiments in Section 2.3 (10^7–10^8 CFU/mL). At such bacterial densities, MICs were determined as the DICAM concentration at which bacteria neither grow nor are killed under assay conditions (the stationary concentration (SC)), as indicated in Section 2.2. […]

[4] = test system: Escherichia coli DH10B; experiment: Resting-cell viability (CFU) with 0.5 mM EDTA; assay type: cell-based; conditions: E. coli DH10B, 100 µM compound, 3 h incubation
Procedure: (§3) Addition of tested compounds to the culture medium had little or no effect on bacterial growth, even at a concentration of 100 μM (Table 1). Since inactivity could arise from the inability of DICAMs to cross the outer membrane, we next tested their effect on bacterial suspensions in the absence or the presence of 0.5 mM EDTA, an outer membrane permeating agent. A decrease of approximately 90% in bacterial viability was observed after 3 h treatment with DICAM 2 and DICAM 4, compared to controls in EDTA-containing buffer (Supplementary Figure S5). No variations were found with the other compounds tested (Table 1), showing that only DICAMs containing Ala/Asn- Pro -Glu tripeptides were able to access the cell membrane and kill these pathogens when the outer membrane permeability was enhanced.
(§4) For activity assays on resting cells, bacteria grown to exponential phase (OD600 ≈ 0.3) were centrifuged and washed with 20 mM Tris-HCl (pH 7.5), adjusting the final OD600 to ≈0.6 (≈10^8 CFU/mL) with the same buffer. If required, EDTA (0.5 mM final concentration) was next added and the bacterial suspension was dispensed (225 µL per well) in 96-well plates, and then treated with 100 µM DICAM (25 µL). Samples were incubated at 37°C for 3 h and turbidity measurements were taken at selected intervals, also measuring the decay in cell viability at the end of incubation. Controls with buffer (with and without 1% DMSO), 100 µM DICAM, or 0.5 mM EDTA were run in parallel.

[5] = test system: Pseudomonas aeruginosa PAO1; experiment: Resting-cell viability (CFU) with 0.5 mM EDTA; assay type: cell-based; conditions: P. aeruginosa PAO1, 100 µM compound, 3 h incubation
Procedure: as §3, §4

[6] = test system: Escherichia coli DH10B; experiment: Growth inhibition screening of planktonic cultures (OD550/600); assay type: cell-based; set-up: key: (+++) full inhibition; (++) partial inhibition; (+) growth retardation; -: (−) no effect; conditions: E. coli DH10B, 50 and 100 μM compound added at T1, OD550/600 followed 10 h, 37°C
Procedure: as §1, §2

[7] = test system: Pseudomonas aeruginosa PAO1; experiment: as above; assay type: cell-based; set-up: key: (+++) full inhibition; (++) partial inhibition; (+) growth retardation; -: (−) no effect; conditions: P. aeruginosa PAO1, 50 and 100 μM compound added at T1, OD550/600 followed 10 h, 37°C
Procedure: as §1, §2

[8] = test system: Staphylococcus aureus T; experiment: as above; assay type: cell-based; set-up: key: (+++) full inhibition; (++) partial inhibition; (+) growth retardation; -: (−) no effect; conditions: S. aureus T, 50 and 100 μM compound added at T1, OD550/600 followed 10 h, 37°C
Procedure: as §1, §2

[9] = test system: Streptococcus pyogenes T; experiment: as above; assay type: cell-based; set-up: key: (+++) full inhibition; (++) partial inhibition; (+) growth retardation; -: (−) no effect; conditions: S. pyogenes T, 50 and 100 μM compound added at T1, OD550/600 followed 10 h, 37°C
Procedure: as §1, §2

[10] = Calcein release from LUVs; conditions: 10 μM DICAM, 25°C, vesicle buffer pH 7.4, calcein release
Procedure: LUVs were prepared for calceine liberation assays as described ([Chongsiriwatana and Barron, 2009]). Lipid composition (mole %) of LUVs was: POPG (100), POPG:CL (80:20), POPG:CL:DOPE ([…]), and POPG:CL:GlcDAG (75:5:20). Briefly, the nitrogen-dried lipid mixture was dissolved at 1.25 mM with 100 mM calceine in vesicle buffer (10 mM Tris, 140 mM NaCl, 0.5 mM EDTA, pH 7.4) followed by five thaw-freeze cycles. Calceine-entrapped LUVs were prepared by extrusion through 100 nm polycarbonate membranes (Avanti Polar Lipids). Non-entrapped calceine was separated from LUVs by gel filtration on a Sephacryl® S200-HR column (Sigma). LUVs permeabilization was monitored at 25°C by fluorescence emission at 550 nm (λex = 480 nm) as a function of time in a Fluoromax-4 spectrofluorometer (Horiba, France) using agitation. Signal stabilization of samples (1,500 µL vesicle buffer plus 45 µL LUVs) was recorded for 5 min before 10 µM final DICAM addition, and calcein release was monitored for a maximum of 20 min. After incubation, samples were solubilized in Triton X-100 (0.025%) and the fluorescence signal recorded thereafter was used to normalize the entire data set. Solubilization of DICAM-untreated LUVs in Triton X-100 was used as a positive control. No perturbation was detected in controls containing DMSO.

Substance: Ala- Pro -Glu-NH-C12H25 · HCl [DICAM 11]
- Retention time [1]: 15.29 min
- Growth halt or lysis (50/100 μM), Spn [2]: -

Substance: Ala- Pro -Glu-NH-C16H33 · HCl [DICAM 12]
- Retention time [1]: 17.57 min
- Reduction of the number of viable cells at saturating doses ([3]; S. pneumoniae D39, within 60 min): ≥ 4.6 log-units
- Reduction of the number of viable cells at 3 × SC, S. pneumoniae ([3]; after 1-h incubation at 3 × SC values): 99.2%–99.8
- Growth halt or lysis (50/100 μM), Spn [2]: +++

Substance: Ala- Pro -Trp-NH-C18H37 · HCl [DICAM 16]
- Retention time [1]: 21.04 min
- CFU's decay in the presence of 0.5 mM EDTA, Ec (data in parenthesis) [4]: (−) ((−) ≤ 0.3 log-units)
- Growth halt or lysis (50/100 μM), Spn [2]: -
- CFU's decay in the presence of 0.5 mM EDTA, Pa (data in parenthesis) [5]: (−) ((−) ≤ 0.3 log-units)
- Growth halt or lysis (50/100 μM), Ec [6]: -
- Growth halt or lysis (50/100 μM), Pa [7]: -
- Growth halt or lysis (50/100 μM), Sa T [8]: -
- Growth halt or lysis (50/100 μM), Spy T [9]: -

Substance: Asn- Ala -Glu-NH-C18H37 · HCl [DICAM 17]
- Retention time [1]: 18.63 min
- CFU's decay in the presence of 0.5 mM EDTA, Ec (data in parenthesis) [4]: (−) ((−) ≤ 0.3 log-units)
- Growth halt or lysis (50/100 μM), Spn [2]: -
- CFU's decay in the presence of 0.5 mM EDTA, Pa (data in parenthesis) [5]: (−) ((−) ≤ 0.3 log-units)
- Growth halt or lysis (50/100 μM), Ec [6]: -
- Growth halt or lysis (50/100 μM), Pa [7]: -
- Growth halt or lysis (50/100 μM), Sa T [8]: -
- Growth halt or lysis (50/100 μM), Spy T [9]: -

Substance: Asn- Pro -Glu-OMe · HCl [DICAM 5]
- Retention time [1]: 5.15 min
- Growth halt or lysis (50/100 μM), Spn [2]: -

Substance: Asn- Pro -Phe-NH-C18H37 · HCl [DICAM 7]
- Retention time [1]: 22.21 min
- Growth halt or lysis (50/100 μM), Spn [2]: -
- Permeation of DOPE:POPG:CL (80:15:5) LUVs, result in words [10]: particularly effective
- Growth halt or lysis (50/100 μM), Spy T [9]: -

Substance: Cbz-Ala- Pro -Trp-NH-C18H37 [DICAM 15]
- Retention time [1]: 23.18 min
- CFU's decay in the presence of 0.5 mM EDTA, Ec (data in parenthesis) [4]: (−) ((−) ≤ 0.3 log-units)
- Growth halt or lysis (50/100 μM), Spn [2]: -
- CFU's decay in the presence of 0.5 mM EDTA, Pa (data in parenthesis) [5]: (−) ((−) ≤ 0.3 log-units)
- Growth halt or lysis (50/100 μM), Ec [6]: -
- Growth halt or lysis (50/100 μM), Pa [7]: -

Substance: Cbz-Asn- Pro -Glu(O^tBu)-NH-C18H37 [DICAM 8]
- Growth halt or lysis (50/100 μM), Spn [2]: -

Substance: Cbz-Asn- Pro -Glu-NH-C12H25 [DICAM 9]
- Retention time [1]: 15.80 min
- Growth halt or lysis (50/100 μM), Spn [2]: -

Substance: Pro -Glu-NH-C18H37 · HCl [DICAM 18]
- Retention time [1]: 19.54 min
- Growth halt or lysis (50/100 μM), Spn [2]: -
- Growth halt or lysis (50/100 μM), Ec [6]: -
- Growth halt or lysis (50/100 μM), Pa [7]: -
